Source: patent US9511062B2, “Compacted rumen protected nutrient pellets and method of manufacture” (Qualitech, Inc., priority 2011, dated 2016)

Assays:
[1] = Rumen protected niacin, effect upon milk production; type: in vivo, Holstein cows; settings: 12 g top-dressed on TMR twice daily (N12 / BN12)
Excerpt: Six multiparous rumen-cannulated Holstein cows (BW=656 kg) after peak lactation (128±23 days in milk) were assigned to 1 of 6 treatments in a completely randomized 6×6 Latin Square with an extra period to measure carry-over effects. Periods consisted of a 7-day (d 1-7) adaptation period followed by a 7-day (d 8-14) measurement period. Cows were fed according to NRC (2001) recommendations to meet or exceed requirements. Treatments were: CON (no niacin), INF (abomassal infusion of 12 g unprotected niacin (UN)), N12 (12 g UN), BN3 (3 g PN), BN6 (6 g PN), and BN12 (12 g PN). Treatments N12, BN3, BN6, and BN 12 were top-dressed on the Total Mixed Ration (TMR) twice daily. The daily dose of treatment INF was divided in 5 equal portions and infused during the day every 4 hours. Cows receiving treatments other than INF were infused with the same volume of water at the same time.

[2] = Rumen protected niacin, response to epinephrine (Epi) challenge; type: in vivo, Holstein cows
Excerpt: Niacin may modulate lipolytic responses in adipose tissue but is highly degradable in the rumen so that oral administration leads to unknown quantities absorbed. We determined responses to epinephrine (Epi) challenge as affected by three levels of protected niacin (PN) or unprotected niacin (UN) in the diet or infused abomasally.
Six multiparous rumen-cannulated Holstein cows (BW=656 kg; 128±23 days in milk) were used in a completely randomized 6×6 Latin Square with an extra period to quantify carryover effects. Periods consisted of 7 days for adaptation followed by 7 days for measurements. Cows were fed according to NRC (2001) recommendations. Treatments were: CON (no niacin), INF (abomassal infusion of 12 g UN), N12 (12 g UN), BN3 (3 g PN), BN6 (6 g PN), and BN12 (12 g PN). Treatments N12, BN3, BN6, and BN12 were top-dressed on the Total Mixed Ration (TMR) twice daily. Treatment INF was divided in 5 equal portions and infused every 4 hours. Cows receiving treatments other than INF were infused with the same volume of water at the same times.
On day 12, cows received an i.v, infusion of Epi (1.4 μg/kg BW). […] Total area under the curve (AUC) responses of nonesterified Fatty Acids (NEFA) and glucose concentrations in plasma were calculated using the trapezoidal rule.

With `O=C(O)c1cccnc1` [UN, niacin] the “dry matter intake (DMI)” value [1] was 24.3 ± 1 kg, the “milk fat/protein ratio (F/P)” value ([1]; P=0.03) was 1.15±0.09 and the “Feed efficiency (FE=energy-corrected milk/DMI)” value ([1]; P=0.04) was 1.5±0.1. For the same compound, the Milk yield ([1]; P=0.06) was 37.1 ± 2.3 kg, the “Time to peak NEFA concentration” value ([2]; 12 g top-dressed on TMR twice daily (N12 / BN12), i.v. Epi 1.4 μg/kg BW on day 12, plasma) was 22.1 ± 3.2 min and the “glucose AUC” value ([2]; abomasal infusion of 12 g (INF) compared with N12, Epi challenge, P=0.04) was “greater AUC than N12”.
